Here are results for 9 compounds from PubChem BioAssay (NCI).

Test systems include UACC-257 melanoma; MOLT-4 leukemia; HL-60(TB) leukemia; TK-10 renal; ACHN renal; RPMI-8226 leukemia; CAKI-1 renal; U251 CNS; CCRF-CEM leukemia; EKVX NSCLC.
Holding throughout (assay): NCI anticancer screen, dose series, 48 h

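1) Cells in 96-well plates. 2) Compound, 48 h, 5 concentrations. 3) Linear interpolation between surrounding doses. 4) Unreached endpoint = highest concentration. GI50 is the concentration that inhibits growth by half. Definition used: TGI = concentration required for complete inhibition of growth.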 A value given as a limit tells only on which side of the number the result lay.

For `O=C(N/N=C/c1ccc(O)cc1O)c1cccnc1`, the GI50 in the test on UACC-257 melanoma was 3.33 µM; in the test on MOLT-4 leukemia it was 3.1 µM; in the test on HL-60(TB) leukemia, 3.74 µM; with TK-10 renal it was 2.52 µM; with ACHN renal, 1.47 µM; in the test on RPMI-8226 leukemia, 4.13 µM. Further, the GI50 in the test with CAKI-1 renal was 1.76 µM; with U251 CNS it was 2.42 µM; in the test on CCRF-CEM leukemia, 0.971 µM. In addition, the TGI with UACC-257 melanoma is 22.5 µM; in the test on MOLT-4 leukemia it was more than 100 µM; in the test on HL-60(TB) leukemia, more than 100 µM; with TK-10 renal, more than 100 µM; in the test with ACHN renal, more than 100 µM; in the test with RPMI-8226 leukemia, more than 100 µM. In addition, the TGI with CAKI-1 renal is 45.6 µM; with U251 CNS, 41.5 µM; in the test on CCRF-CEM leukemia, more than 100 µM.
In the case of `COc1ccc(-c2noc(N)c2-c2cc(OC)c3c(c2)OCO3)cc1`, the GI50 in the test on UACC-257 melanoma was 5.87 µM; in the test on MOLT-4 leukemia it was 1.98 µM; in the test with HL-60(TB) leukemia, 1.64 µM; in the test on TK-10 renal, 7.8 µM; with ACHN renal, 6.88 µM; with RPMI-8226 leukemia, 3.25 µM. The GI50 in the test on CAKI-1 renal is 3.21 µM; with U251 CNS, 3.7 µM; in the test with CCRF-CEM leukemia it was 1.45 µM. Besides, the TGI in the test with UACC-257 melanoma was more than 100 µM; in the test on MOLT-4 leukemia, more than 64.1 µM; in the test with HL-60(TB) leukemia it was 7.6 µM; with TK-10 renal it was more than 100 µM; in the test with ACHN renal, more than 100 µM; in the test with RPMI-8226 leukemia, more than 49.9 µM. Moreover, the TGI was more than 100 µM with CAKI-1 renal, more than 100 µM with U251 CNS and more than 35.8 µM in the test on CCRF-CEM leukemia.
As to `CC(=O)[CH-]C(=O)c1ccccc1.CC(=O)[CH-]C(=O)c1ccccc1.O=S(=O)([O-])c1cc([O-])c2c([O-])cc(S(=O)(=O)[O-])cc2c1.[Na+].[Ti+4]`, the GI50 in the test on UACC-257 melanoma was 77.1 µM; in the test on MOLT-4 leukemia it was 34.3 µM; in the test with HL-60(TB) leukemia, more than 100 µM; in the test on EKVX NSCLC, more than 100 µM; in the test with ACHN renal, more than 100 µM; in the test on RPMI-8226 leukemia, more than 100 µM. Further, the GI50 in the test on CAKI-1 renal is more than 100 µM; in the test on U251 CNS, 97.8 µM. The TGI in the test on UACC-257 melanoma, in the test with MOLT-4 leukemia, with HL-60(TB) leukemia, in the test with EKVX NSCLC, in the test with ACHN renal and with RPMI-8226 leukemia was more than 100 µM in each case. Besides, the TGI in the test on CAKI-1 renal and in the test with U251 CNS was more than 100 µM each time.
On to `N#CC(C#N)=C1CCCOc2c1ccc1ccccc21`, for which the GI50 with MOLT-4 leukemia is 19.5 µM; with HL-60(TB) leukemia, 16.7 µM; in the test on TK-10 renal, 42.9 µM; with EKVX NSCLC it was 46.8 µM; with ACHN renal it was more than 100 µM; in the test with RPMI-8226 leukemia, 24.5 µM. Also, the GI50 in the test on CAKI-1 renal was more than 100 µM; in the test on CCRF-CEM leukemia, 23 µM. The TGI was 51 µM in the test on MOLT-4 leukemia; 36 µM with HL-60(TB) leukemia; more than 100 µM with TK-10 renal; more than 100 µM in the test with EKVX NSCLC; more than 100 µM in the test with ACHN renal; 65.1 µM in the test on RPMI-8226 leukemia. The figures for the TGI in the test on CAKI-1 renal and with CCRF-CEM leukemia were more than 100 µM and 63.7 µM, respectively.
Turning to `CNCCn1c(=O)c2cc(OC)c(OC)cc2c2cnc3cc4c(cc3c21)OCO4`, the GI50 in the test on UACC-257 melanoma was 0.0267 µM; with MOLT-4 leukemia it was less than 0.01 µM; in the test on HL-60(TB) leukemia, less than 0.01 µM; in the test with TK-10 renal it was 0.0465 µM; with ACHN renal it was less than 0.01 µM; in the test on RPMI-8226 leukemia it was 0.0254 µM. In addition, the GI50 with CAKI-1 renal, with U251 CNS and with CCRF-CEM leukemia was less than 0.01 µM each time. Besides, the TGI came out at 5.66 µM in the test with UACC-257 melanoma; 0.0303 µM with MOLT-4 leukemia; 0.111 µM in the test on HL-60(TB) leukemia; 2.16 µM in the test on TK-10 renal; 1.12 µM in the test with ACHN renal; 0.915 µM in the test with RPMI-8226 leukemia. Moreover, the TGI stood at 0.128 µM with CAKI-1 renal, 0.0242 µM with U251 CNS and 1.19 µM with CCRF-CEM leukemia.
In the case of `NC(=O)CNc1ccc([As]=[As]c2ccc(NCC(N)=O)cc2)cc1` (stereo unspecified), the GI50 with UACC-257 melanoma is 12.4 µM; in the test with MOLT-4 leukemia, 9.29 µM; in the test with HL-60(TB) leukemia, 1.75 µM; with EKVX NSCLC, 4.83 µM; in the test on ACHN renal, 11.6 µM; with RPMI-8226 leukemia, 2.61 µM. In addition, the GI50 in the test with CAKI-1 renal is 2.41 µM; with U251 CNS it was 1.57 µM; in the test with CCRF-CEM leukemia it was 0.706 µM. Further, the TGI with UACC-257 melanoma was 39.6 µM; with MOLT-4 leukemia it was more than 100 µM; in the test with HL-60(TB) leukemia, 9.26 µM; in the test on EKVX NSCLC, 90.9 µM; in the test on ACHN renal, 30.3 µM; in the test on RPMI-8226 leukemia it was 10.8 µM. The TGI in the test with CAKI-1 renal amounted to 17.9 µM; with U251 CNS it was 23.2 µM; in the test on CCRF-CEM leukemia it was 73.6 µM.
On to `O=C(Nc1ccc(Cl)cc1)Nc1nccs1`, for which the GI50 was 4.8 µM in the test with MOLT-4 leukemia; 2.3 µM in the test with HL-60(TB) leukemia; 10.2 µM with TK-10 renal; 2.25 µM in the test on ACHN renal; 2.63 µM with RPMI-8226 leukemia; 2.36 µM in the test on CAKI-1 renal. Also, the GI50 in the test on U251 CNS is 3.44 µM; in the test on CCRF-CEM leukemia it was 1.93 µM. The TGI in the test with MOLT-4 leukemia is 84.2 µM; in the test with HL-60(TB) leukemia, 10.2 µM; in the test with TK-10 renal it was 93.1 µM; in the test on ACHN renal, 43 µM; with RPMI-8226 leukemia, 16.6 µM; in the test with CAKI-1 renal, 54.8 µM. In addition, the figures for the TGI with U251 CNS and in the test on CCRF-CEM leukemia were 26.9 µM and 62 µM, respectively.
As to `CCC[CH2][Sn]1([CH2]CCC)[O]CC(COc2c(Cl)cc(Cl)cc2Cl)[O]1` (stereo unspecified), the GI50 was 1.11 µM in the test with UACC-257 melanoma; 5.51 µM with EKVX NSCLC; 1.77 µM in the test on ACHN renal; 0.78 µM in the test with RPMI-8226 leukemia; 0.511 µM in the test on CAKI-1 renal; 0.845 µM in the test on U251 CNS. The TGI amounted to 2.33 µM in the test on UACC-257 melanoma; 0.673 µM with HL-60(TB) leukemia; 17.3 µM with EKVX NSCLC; 3.17 µM with ACHN renal; 3.72 µM in the test on RPMI-8226 leukemia; 1.65 µM in the test on CAKI-1 renal. The compound also came in with a TGI with U251 CNS of 2.18 µM.
On to `CCc1cccc(C)c1NC(=O)CC1C(=O)Nc2ccccc2S1=O` (stereo unspecified), for which the TGI was 86.5 µM with UACC-257 melanoma; more than 100 µM in the test on MOLT-4 leukemia; 74.9 µM in the test on HL-60(TB) leukemia; more than 100 µM with TK-10 renal; more than 100 µM in the test with ACHN renal; more than 100 µM in the test with RPMI-8226 leukemia. Further, the figures for the TGI in the test with CAKI-1 renal and in the test on U251 CNS were more than 100 µM and 55.4 µM, respectively.
